Laboratory results as given in PubChem BioAssay (NCI).
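Results reflect a 48-hour exposure of cells in 96-well plates to compound at five concentrations. At the TGI there is no net growth.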

Experiments:
Assay in all cases: DTP human tumour cell line panel, 48 h
ACHN renal = tested on: ACHN renal
NCI-H460 lung = tested on: NCI-H460 lung
TK-10 renal = tested on: TK-10 renal
SNB-75 CNS = tested on: SNB-75 CNS
HOP-62 NSCLC = tested on: HOP-62 NSCLC
SNB-19 CNS = tested on: SNB-19 CNS
SK-MEL-28 melanoma = tested on: SK-MEL-28 melanoma
MDA-MB-231 breast = tested on: MDA-MB-231 breast
HL-60(TB) leukemia = tested on: HL-60(TB) leukemia
NCI-H226 lung = tested on: NCI-H226 lung
SK-MEL-2 melanoma = tested on: SK-MEL-2 melanoma
A498 renal = tested on: A498 renal
HCT-15 colon = tested on: HCT-15 colon
RXF 393 renal = tested on: RXF 393 renal
OVCAR-8 ovarian = tested on: OVCAR-8 ovarian
OVCAR-5 ovarian = tested on: OVCAR-5 ovarian
RPMI-8226 leukemia = tested on: RPMI-8226 leukemia
U251 CNS = tested on: U251 CNS
IGROV1 ovarian = tested on: IGROV1 ovarian
LOX IMVI melanoma = tested on: LOX IMVI melanoma
HOP-92 NSCLC = tested on: HOP-92 NSCLC
DU-145 prostate = tested on: DU-145 prostate
SK-MEL-5 melanoma = tested on: SK-MEL-5 melanoma
SN12C renal = tested on: SN12C renal
UACC-257 melanoma = tested on: UACC-257 melanoma
MDA-N = tested on: MDA-N
UACC-62 melanoma = tested on: UACC-62 melanoma
SW-620 colon = tested on: SW-620 colon
OVCAR-4 ovarian = tested on: OVCAR-4 ovarian
HCT-116 colon = tested on: HCT-116 colon
SF-268 CNS = tested on: SF-268 CNS
CCRF-CEM leukemia = tested on: CCRF-CEM leukemia
SR leukemia = tested on: SR leukemia
NCI-H23 lung = tested on: NCI-H23 lung
SF-295 CNS = tested on: SF-295 CNS
EKVX NSCLC = tested on: EKVX NSCLC
MCF7 breast = tested on: MCF7 breast
NCI-H522 lung = tested on: NCI-H522 lung
T-47D breast = tested on: T-47D breast
CAKI-1 renal = tested on: CAKI-1 renal
786-0 renal = tested on: 786-0 renal
NCI/ADR-RES ovarian = tested on: NCI/ADR-RES ovarian
PC-3 prostate = tested on: PC-3 prostate
HCC-2998 colon = tested on: HCC-2998 colon
COLO 205 colon = tested on: COLO 205 colon
HT29 colon = tested on: HT29 colon
KM12 colon = tested on: KM12 colon
MDA-MB-435 = tested on: MDA-MB-435
BT-549 breast = tested on: BT-549 breast
HS 578T breast = tested on: HS 578T breast
OVCAR-3 ovarian = tested on: OVCAR-3 ovarian
M14 melanoma = tested on: M14 melanoma
A549 NSCLC = tested on: A549 NSCLC
K-562 leukemia = tested on: K-562 leukemia
SK-OV-3 ovarian = tested on: SK-OV-3 ovarian
UO-31 renal = tested on: UO-31 renal
MALME-3M melanoma = tested on: MALME-3M melanoma

Measured: TGI

CC(CC(=O)O)(CC(=O)O)c1ccccc1
> 100 µM: all assays above
